Patent EP3917907B1, “MODULATORS OF POTASSIUM ION CHANNELS AND USES THEREOF” (Universitá Degli Studi Di Salerno, priority 2019, dated 2020)

What was measured:
[1] = Photostability (HPLC, solar simulator irradiation); format: physicochemical; conditions: percentage of degradation after 6 h irradiation with solar simulator; 100 ppm in extracellular solution pH 7.4
Experimental: (§1) In order to study the solution stability and photostability of the potassium channel modulators object of the present invention, a stock solution of the proper analyte (1 mg/mL) in dimethylsulfoxide (DMSO) has been prepared. This solution has been then diluted to a concentration of 100 ppm using extracellular solution containing (in mM): 138 NaCl, 2 CaCl2, 5.4 KCl, 1 MgCl2, 10 glucose, and 10 HEPES, at pH 7.4, adjusted with NaOH. To measure solution stability, the diluted solutions have been maintained at ambient temperature for 6 h. To measure photostability, the diluted solutions have been irradiated for 6 h using a Oriel Sol3A Solar Simulator (Newport corporation, Irvine, CA, USA) with a 12x12 inches output beam. Aliquots of solution have been withdrawn after 6h and analyzed by HPLC using a Kinetex C18, 150 mm × 4.6 mm × 2.6 µm (Phenomenex, Bologna, Italy) as stationary phase and a mobile phase constituted by A: H2O/CH3CN (80:20) and B: CH3CN. Gradient elution has been performed from 20% to 90% of B in 7.50 minutes and from 90% to 20% of B in 1 minute. The pump flux has been set to 1.5 mL/min. Column has been thermostatted at 40°C during analysis. Results are espressed in Table 3 as percentage of degradation of the product calculated as ratio between the peak area of the analyte at time 0 (Pa0) and after 6h (Pa6) using the following formula: % degradation = (Pa0−Pa6)/Pa0 *100. [formula]

[2] = Solution stability (HPLC, extracellular solution, ambient temperature); format: physicochemical; conditions: percentage of degradation after 6 h at ambient temperature; 100 ppm in extracellular solution pH 7.4
Experimental: as §1

[3] = target: T1, Kv7.2 (Homo sapiens, UniProt O43526); experiment: Whole-cell patch-clamp on CHO cells transiently expressing Kv7.2; format: cell-based; conditions: CHO cells, mean±SEM, >1 activating, <1 inhibiting; for Idrug/Ictl at 0 mV: ratio of ramp-evoked Kv7.2 current amplitude in presence and absence of drug at 0 mV; for Idrug/Ictl at -40 mV: ratio of ramp-evoked Kv7.2 current amplitude in presence and absence of drug at -40 mV
T1 construct: expressed in transfected cells; host or cells: CHO cells (ATCC CRL-9618), transient transfection, pcDNA3.1(+)
Experimental: (§2) According to the experimental protocol, these plasmids were expressed individually or in combination (in particular of Kv7.2 and Kv7.3), together with a plasmid-expressing enhanced green fluorescent protein (Clontech, Palo Alto, CA) used as a transfection marker. Total cDNA in the transfection mixture was kept at 4 µg. CHO cells were grown in 100-mm plastic Petri dishes in Dulbecco's modified Eagle's medium containing 10% fetal bovine serum, nonessential amino acids (0.1 mM), penicillin (50 U/ml), and streptomycin ([…]) in a humidified atmosphere at 37°C with 5% CO2. The cells were plated on glass coverslips coated with poly-L-lysine, and transfected one day after plating with the appropriate cDNA using Lipofectamine 2000 (Life Technologies), according to the manufacturer's protocol.
(§3) Currents from CHO cells were recorded at room temperature (20-22°C) 24 hours after trasfection using the whole-cell configuration of the patch-clamp technique, with glass micropipettes of 3-5 MΩ resistance. During the recording, constant perfusion of extracellular solution was maintained. The extracellular solution contained (in mM): 138 NaCl, 2 CaCl2, 5.4 KCl, 1 MgCl2, 10 glucose, and 10 HEPES, at pH 7.4, adjusted with NaOH. The pipette (intracellular) solution contained (in mM): 140 KCl, 2 MgCl2, 10 EGTA, 10 HEPES, 5 Mg^2+-ATP, at pH 7.3-7.4, adjusted with KOH. Currents were recorded using an Axopatch-200A amplifier, filtered at 5 kHz, and digitized using a DigiData 1440A (Molecular Devices). The pCLAMP software (version 10.2, Molecular Devices) was used for data acquisition and analysis. To evaluate the activity of exemplary compounds on Kv7.2 (see Table 1), as well as on Kv7.1, Kv7.2/7.3, Kv7.3 and Kv7.4 channels for selected compounds (see Table 2), the cells were clamped at -80 mV and currents were elicited by 3-s voltage ramps from -80 mV to +20 mV in the presence and absence of each compound. […] The effects of drugs were expressed as shift in the ramp-voltage (ΔV) calculated at 20% of the maximal current (Miceli et al, Proc Natl Acad Sci U S A. 2013, 110(11):4386-91). Curves were fitted using the following equation: y=max/(1+x/EC50)n, where x is the drug concentration, n is the Hill coefficient and max is the maximal value achieved, as previously described (Ambrosino et al, Br J Pharmacol. 2013, 168(6):1430-1444). Data analysis and fit were performed using Sigmaplot (version 12.3).
Ramp-evoked Kv7.2 currents were analyzed by measuring the currents at -40 mV (a membrane potential value close to the activation threshold) and at 0 mV (a membrane potential value at which Kv7.2 conductance is largely saturated). In particular, -40 mV represents the threshold potential for spike initiation and 0 mV represents instead the membrane potential value at which maximal conductance of the channel is achieved.
In Table 1, the effect of exemplary compounds of the invention is expressed as the ratio between current amplitude in the presence (Idrug) and absence (Ictl) of the drug at these two membrane voltages. […]

[4] = target: T2, Kv7.2/7.3 (Homo sapiens, UniProt O43525+O43526); experiment: Whole-cell patch-clamp on CHO cells co-expressing Kv7.2 and Kv7.3; format: cell-based
T2 construct: expressed in transfected cells; host or cells: CHO cells (ATCC CRL-9618), transient co-transfection, pcDNA3.1(+)
Experimental: as §2, §3

[5] = target: T3, Kv7.1 (Homo sapiens, UniProt P51787); experiment: Whole-cell patch-clamp on CHO cells transiently expressing Kv7.1; format: cell-based; conditions: shift in ramp-voltage (ΔV) at 20% of maximal current, 0.01-10 µM
T3 construct: expressed in transfected cells; host or cells: CHO cells (ATCC CRL-9618), transient transfection, pcDNA3.1(+)
Experimental: as §2
as §3, with “Curves were fitted using the following equation: y=max/(1+x/EC50)n, where x is the drug concentration, n is the Hill coefficient and max is the maximal value achieved, as previously described (Ambrosino et al, Br J Pharmacol. 2013, 168(6):1430-1444). Data analysis and fit were performed using Sigmaplot (version 12.3).” left out

| SMILES | Photostability [1] | Solution stability [2] | Idrug/Ictl at 0 mV [3] | Idrug/Ictl at -40 mV [3] | EC50 ([4]; Kv7.2/7.3, shift in ramp-voltage (ΔV) at 20% of maximal current, 0.01-10 µM) | potency relative to retigabine in increasing Kv7.2/3 currents ([4]; from EC50 values of Table 2) | EC50 [5] |
| --- | --- | --- | --- | --- | --- | --- | --- |
| CN1CCN(S(=O)(=O)Nc2ccc3c(c2)CCN3Cc2ccc(F)cc2)CC1 [N-(1-(4-fluorobenzyl)indolin-5-yl)-4-methylpiperazine-1-sulfonamide] | B (20%< degradation<40%) | B (20%< degradation<40%) | 0.95±0.07 | 1.25±0.19 |  |  |  |
| O=S(=O)(Nc1ccc2c(c1)CCN2Cc1ccc(F)cc1)N1CCCCCC1 [N-(1-(4-fluorobenzyl)indolin-5-yl)azepane-1-sulfonamide] | B (20%< degradation<40%) | B (20%< degradation<40%) | 0.98±0.11 | 0.89±0.12 |  |  |  |
| O=S(=O)(Nc1ccc2c(c1)CCN2Cc1ccc(F)cc1)c1ccccc1 [N-(1-(4-fluorobenzyl)indolin-5-yl)benzenesulfonamide] | B (20%< degradation<40%) | A (degradation lower than 20%) | 0.64±0.14 | 1.15±0.28 |  |  |  |
| O=S(=O)(Nc1ccc2c(c1)CCN2CCc1ccc(F)cc1)C1CCCCC1 [N-(1-(4-fluorophenethyl)indolin-5-yl)cyclohexanesulfonamide] | C (degradation > 40%) | C (degradation > 40%) | 1.37±0.17 | 3.24±1.52 |  |  |  |
| COc1ccc(Cn2ccc3cc(NS(=O)(=O)C4CCCCC4)ccc32)cc1 [N-(1-(4-methoxybenzyl)-1H-indol-5-yl)cyclohexanesulfonamide] | A (degradation lower than 20%) | A (degradation lower than 20%) | 1.63±0.06 | 2.00±0.36 |  |  |  |
| COc1ccc(CN2c3ccc(NS(=O)(=O)C4CCCCC4)cc3CC2C)cc1 (centres unmarked) [N-(1-(4-methoxybenzyl)-2-methylindolin-5-yl)cyclohexanesulfonamide] | C (degradation > 40%) | B (20%< degradation<40%) | 0.92±0.13 | 1.13±0.15 |  |  |  |
| COc1ccc(CN2CCc3cc(NS(=O)(=O)C4CCCCC4)ccc32)cc1 [N-(1-(4-methoxybenzyl)indolin-5-yl)cyclohexanesulfonamide] | C (degradation > 40%) | C (degradation > 40%) | 4.24±0.83 | 6.43±1.51 |  |  |  |

More lines, now with the values ahead:

| Photostability [1] | Solution stability [2] | Idrug/Ictl at 0 mV [3] | Idrug/Ictl at -40 mV [3] | EC50 ([4]; Kv7.2/7.3, shift in ramp-voltage (ΔV) at 20% of maximal current, 0.01-10 µM) | potency relative to retigabine in increasing Kv7.2/3 currents ([4]; from EC50 values of Table 2) | EC50 [5] | SMILES |
| --- | --- | --- | --- | --- | --- | --- | --- |
| A (degradation lower than 20%) | A (degradation lower than 20%) | 1.64±0.20 | 1.88±0.14 |  |  |  | CC(=O)Nc1ccc2c(c1)CCN2Cc1ccc(F)cc1 [N-(1-(4-fluorobenzyl)indolin-5-yl)acetamide] |
| C (degradation > 40%) | C (degradation > 40%) | 1.55±0.12 | 2.03±0.19 |  |  |  | CCCCS(=O)(=O)Nc1ccc2c(c1)CCN2Cc1ccc(F)cc1 [N-(1-(4-fluorobenzyl)indolin-5-yl)butane-1-sulfonamide] |
| B (20%< degradation<40%) | A (degradation lower than 20%) | 0.66±0.07 | 1.32±0.21 |  |  |  | O=C(Nc1ccc2c(c1)CCN2Cc1ccc(F)cc1)C1CCCCC1 [N-(1-(4-fluorobenzyl)indolin-5-yl)cyclohexanecarboxamide] |
| C (degradation > 40%) | B (20%< degradation<40%) | 2.18±0.09 | 2.48±0.20 |  |  |  | CCCCCCS(=O)(=O)Nc1ccc2c(c1)CCN2Cc1ccc(F)cc1 [N-(1-(4-fluorobenzyl)indolin-5-yl)hexane-1-sulfonamide] |
| A (degradation lower than 20%) | A (degradation lower than 20%) | 1.94±0.12 | 5.76±1.28 |  |  |  | CCCCCCC(=O)Nc1ccc(NCc2ccc(C(F)(F)F)cc2)c(F)c1N [N-(2-amino-3-fluoro-4-((4-(trifluoromethyl)benzyl)amino)phenyl)heptanamide] |
| B (20%< degradation<40%) | A (degradation lower than 20%) | 2.05±0.56 | 12.4±2.05 |  |  |  | CCCCCCC(=O)Nc1ccc(NCc2ccc(OC(F)(F)F)cc2)cc1N [N-(2-amino-4-((4-(trifluoromethoxy)benzyl)amino)phenyl)heptanamide] |
| C (degradation > 40%) | C (degradation > 40%) | 0.19±0.1 | 1.5±0.2 |  |  |  | Nc1cc(NCc2ccc(C(F)(F)F)cc2)ccc1NS(=O)(=O)C1CCCCC1 [N-(2-amino-4-((4-(trifluoromethyl)benzyl)amino)phenyl)cyclohexanesulfonamide] |
| B (20%< degradation<40%) | A (degradation lower than 20%) | 2.55±0.56 | 16.90±3.33 | 200 ± 100 nM | eight times more potent than retigabine | Inactive | CCCCCCC(=O)Nc1ccc(NCc2ccc(C(F)(F)F)cc2)cc1N [N-(2-amino-4-((4-(trifluoromethyl)benzyl)amino)phenyl)heptanamide] |
| A (degradation lower than 20%) | A (degradation lower than 20%) | 3.30±0.40 | 8.85±1.17 |  |  |  | CCCCCCC(=O)Nc1ccc(NCc2ccc(F)cc2)c(F)c1 [N-(3-fluoro-4-((4-fluorobenzyl)amino)phenyl)heptanamide] |
| C (degradation > 40%) | A (degradation lower than 20%) | 1.26±0.13 | 2.01±0.58 |  |  |  | CCOC(=O)Nc1ccc2c(c1)CCN2Cc1ccc(F)cc1 [ethyl (1-(4-fluorobenzyl)indolin-5-yl)carbamate] |
